The record followed here is patent publication US9657006B2, “Macrocyclic factor VIIa inhibitors” (BRISTOL-MYERS SQUIBB COMPANY, priority 2013, dated 2017).

The structures appear in SMILES notation. Structures can show the parent of a compound that is named as a salt. Where two headings read alike, the source gives them in different places.

The conditions of series [1]: amide bond.
The target of another series is T1, FVIIa (Homo sapiens, UniProt P08709).
T1 construct: with about 1% of the total amount in the proteolytically active form factor VIIa
The series can be described thus: FVIIa Ki (25° C.): FVIIa peptide substrate assay. The format is biochemical. Particulars: S2288 peptide substrate, full-length human TF. The method, then: The effectiveness of compounds of the present invention as inhibitors of the coagulation Factors, VIIa, IXa, Xa, XIa, XIIa, plasma kallikrein or thrombin, tissue kallikrein and activated protein C, can be determined using a relevant purified serine protease, respectively, and an appropriate synthetic substrate. The rate of hydrolysis of the chromogenic or fluorogenic substrate by the relevant serine protease was measured both in the absence and presence of compounds of the present invention. […] A decrease in the rate of absorbance or fluorescence change in the presence of inhibitor is indicative of enzyme inhibition. Such methods are known to one skilled in the art. The results of this assay are expressed as the inhibitory constant, Ki.
a. FVIIa Ki (25° C.): FVIIa Peptide Substrate Assay
S2288 (range of concentrations) and FVIIa inhibitor were incubated for 15 minutes (min) at 25° C. Reactions were initiated by addition of a solution of full-length human TF (6 nM), FVIIa (0.75 nM), and PCPS (25 μM). FVIIa hydrolyses S2288, which was monitored for up to 60 min at 405 nm. Steady-state reaction velocity data (vs) was globally fit to Equation 1 for competitive inhibition. vs=Vmax[S]/([S]+Km(1+[I]/Ki)) (Eq. 1) where Vmax is maximum velocity, [S] is substrate concentration, Km is the Michaelis-Menten constant, [I] is the inhibitor concentration, and Ki is the inhibitor dissociation constant (GraFit, version 5, Erithacus Software Ltd, West Sussex, UK).

T1 sequence (P08709 213-466 limits assumed): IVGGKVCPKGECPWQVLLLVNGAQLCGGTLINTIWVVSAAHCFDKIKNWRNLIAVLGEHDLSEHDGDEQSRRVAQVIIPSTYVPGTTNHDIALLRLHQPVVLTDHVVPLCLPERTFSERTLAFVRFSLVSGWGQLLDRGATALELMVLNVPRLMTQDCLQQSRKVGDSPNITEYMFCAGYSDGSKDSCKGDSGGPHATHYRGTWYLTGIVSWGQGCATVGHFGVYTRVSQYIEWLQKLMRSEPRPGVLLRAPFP
T1 sequence (P08709 61-212 limits assumed): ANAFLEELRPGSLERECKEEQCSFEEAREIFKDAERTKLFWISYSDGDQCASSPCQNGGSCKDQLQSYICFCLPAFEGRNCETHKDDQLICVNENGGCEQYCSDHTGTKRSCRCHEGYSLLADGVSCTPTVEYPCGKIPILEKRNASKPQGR
T1 sequence (P13726 33-295 partner): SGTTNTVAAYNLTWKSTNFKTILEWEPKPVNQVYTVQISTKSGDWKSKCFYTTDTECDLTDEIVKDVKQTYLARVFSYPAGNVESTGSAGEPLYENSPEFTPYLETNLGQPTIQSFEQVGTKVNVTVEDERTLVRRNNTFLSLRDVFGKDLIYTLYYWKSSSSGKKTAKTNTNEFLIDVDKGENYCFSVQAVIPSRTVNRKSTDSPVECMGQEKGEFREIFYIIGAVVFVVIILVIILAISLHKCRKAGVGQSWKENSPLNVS

In series [1] (from CNCc1cc(NC(=O)CCc2cc(C(Nc3ccc4c(N(C(=O)OC(C)(C)C)C(=O)OC(C)(C)C)ncc(F)c4c3)C(=O)O)cc(F)c2OC)ccc1S(=O)(=O)C1CC1, 14-membered ring, BOP/DMAP/DIPEA, DCM/DMF, 25.0 °C), `COc1c(F)cc2cc1CCC(=O)Nc1ccc(S(=O)(=O)C3CC3)c(c1)CN(C)C(=O)C2Nc1ccc2c(N(C(=O)OC(C)(C)C)C(=O)OC(C)(C)C)ncc(F)c2c1` (centres unmarked) displayed a ring closure, isolated yield of 18%.
`CN1Cc2cc(cc(F)c2OC(F)F)NC(=O)CCc2cccc(c2)C(Nc2ccc(C#N)cc2)C1=O` (centres unmarked) had a ring closure, isolated yield in series [1] (from CN(Cc1cc(N)cc(F)c1OC(F)F)C(=O)C(Nc1ccc(C#N)cc1)c1cccc(CCC(=O)O)c1, 14-membered ring, BOP/DMAP/DIPEA, DCM/DMF, 4.8 mM, 40.0 °C, 21.0 h) of 80%.
In turn, `C[C@@H]1CC(=O)Nc2ccc(S(=O)(=O)C3CC3)c(c2)CN(C)C(=O)C(Nc2ccc3c(N(C(=O)OC(C)(C)C)C(=O)OC(C)(C)C)ncc(F)c3c2)c2ccc(OCc3ccccc3)c1c2` (some centres unmarked) displayed a ring closure, isolated yield in series [1] (from CNCc1cc(NC(=O)C[C@@H](C)c2cc(C(Nc3ccc4c(N(C(=O)OC(C)(C)C)C(=O)OC(C)(C)C)ncc(F)c4c3)C(=O)O)ccc2OCc2ccccc2)ccc1S(=O)(=O)C1CC1, 14-membered ring, BOP) of 19%.
Consider `CN1Cc2cc(ccc2S(=O)(=O)C2CC2)NC(=O)CCc2cccc(c2)C(Nc2ccc3c(N(C(=O)OC(C)(C)C)C(=O)OC(C)(C)C)nccc3c2)C1=O` (centres unmarked), for which, in series [1] (from CNCc1cc(NC(=O)CCc2cccc(C(Nc3ccc4c(N(C(=O)OC(C)(C)C)C(=O)OC(C)(C)C)nccc4c3)C(=O)O)c2)ccc1S(=O)(=O)C1CC1, 14-membered ring, BOP/DMAP/DIPEA, DCM/DMF, 23.3 mM, 25.0 °C, 12.0 h), the ring closure, isolated yield is 50%.
In turn, `COc1cc2cc(c1)C(Nc1ccc3c(N(C(=O)OC(C)(C)C)C(=O)OC(C)(C)C)ncc(F)c3c1)C(=O)N(C)Cc1cc(ccc1S(=O)(=O)C1CC1)NC(=O)CC2` (centres unmarked) gave a ring closure, isolated yield in series [1] (from CNCc1cc(NC(=O)CCc2cc(OC)cc(C(Nc3ccc4c(N(C(=O)OC(C)(C)C)C(=O)OC(C)(C)C)ncc(F)c4c3)C(=O)O)c2)ccc1S(=O)(=O)C1CC1, 14-membered ring, BOP/DMAP/DIPEA, DCM/DMF, 25.0 °C, 12.0 h) of 69%.
In series [1] (from CNCc1cc(NC(=O)CCc2cc(C(Nc3ccc4c(N(C(=O)OC(C)(C)C)C(=O)OC(C)(C)C)ncc(F)c4c3)C(=O)O)ccc2OCC(F)F)ccc1S(=O)(=O)C(F)(F)F, 14-membered ring, BOP), `CN1Cc2cc(ccc2S(=O)(=O)C(F)(F)F)NC(=O)CCc2cc(ccc2OCC(F)F)C(Nc2ccc3c(N(C(=O)OC(C)(C)C)C(=O)OC(C)(C)C)ncc(F)c3c2)C1=O` (centres unmarked) displayed a ring closure, isolated yield of 45%.
Take `CN1Cc2cc(ccc2S(=O)(=O)C2CC2)NC(=O)CCc2cc(ccc2F)C(Nc2ccc3c(N(C(=O)OC(C)(C)C)C(=O)OC(C)(C)C)ncc(F)c3c2)C1=O` (centres unmarked): the ring closure, isolated yield in series [1] (from CNCc1cc(NC(=O)CCc2cc(C(Nc3ccc4c(N(C(=O)OC(C)(C)C)C(=O)OC(C)(C)C)ncc(F)c4c3)C(=O)O)ccc2F)ccc1S(=O)(=O)C1CC1, 14-membered ring, BOP/DMAP/DIPEA, DCM/DMF, 25.0 °C, 12.0 h) was found to be 30%.
In the case of `C[C@H]1CC(=O)Nc2ccc(S(=O)(=O)C3CC3)c(c2)CN(C)C(=O)C(Nc2ccc3c(N(C(=O)OC(C)(C)C)C(=O)OC(C)(C)C)ncc(F)c3c2)c2ccc(OCc3ccccc3)c1c2` (some centres unmarked), in series [1] (from CNCc1cc(NC(=O)C[C@H](C)c2cc(C(Nc3ccc4c(N(C(=O)OC(C)(C)C)C(=O)OC(C)(C)C)ncc(F)c4c3)C(=O)O)ccc2OCc2ccccc2)ccc1S(=O)(=O)C1CC1, 14-membered ring, BOP/DMAP/DIPEA, DCM/DMF, 25.0 °C), the ring closure, isolated yield is 24%.
In series [1] (from CNCc1cc(NC(=O)CCc2cccc(C(Nc3ccc4c(N(C(=O)OC(C)(C)C)C(=O)OC(C)(C)C)ncc(F)c4c3)C(=O)O)c2)ccc1S(=O)(=O)C1CC1, 14-membered ring, BOP/DMAP/DIPEA, DCM/DMF, 25.0 °C), `CN1Cc2cc(ccc2S(=O)(=O)C2CC2)NC(=O)CCc2cccc(c2)C(Nc2ccc3c(N(C(=O)OC(C)(C)C)C(=O)OC(C)(C)C)ncc(F)c3c2)C1=O` (centres unmarked) displayed a ring closure, isolated yield of 41%.
In series [1] (from CNCc1cc(NC(=O)CCc2cc(C(Nc3ccc4c(N(C(=O)OC(C)(C)C)C(=O)OC(C)(C)C)ncc(F)c4c3)C(=O)O)ccc2C2CC2)ccc1S(=O)(=O)C1CC1, 14-membered ring, BOP), `CN1Cc2cc(ccc2S(=O)(=O)C2CC2)NC(=O)CCc2cc(ccc2C2CC2)C(Nc2ccc3c(N(C(=O)OC(C)(C)C)C(=O)OC(C)(C)C)ncc(F)c3c2)C1=O` (centres unmarked) displayed a ring closure, isolated yield of 82%.
Consider `CCOC(=O)CC1NC(=O)[C@H](Nc2ccc(C#N)cc2)c2ccc(OCC(F)F)c(c2)CCC(=O)Nc2cccc1c2` (some centres unmarked), for which the ring closure, isolated yield in series [1] (14-membered ring, HATU) is 21%.
Consider `CN1Cc2cc(cc(F)c2OCC(F)F)NC(=O)CCc2cc(ccc2OCC(F)F)[C@@H](Nc2ccc(C(=N)N)cc2)C1=O` (single isomer, unassigned) [Example 40, trifluoroacetic acid salt], for which the affinity on FVIIa corresponds to a Ki of 0.005 µM.
On to `COc1ccc2cc1COCC(=O)Nc1ccc(S(=O)(=O)C3CC3)c(c1)CN(C)C(=O)C2Nc1ccc2c(N(C(=O)OC(C)(C)C)C(=O)OC(C)(C)C)nccc2c1` (centres unmarked), for which the ring closure, isolated yield in series [1] (from CNCc1cc(NC(=O)COCc2cc(C(Nc3ccc4c(N(C(=O)OC(C)(C)C)C(=O)OC(C)(C)C)nccc4c3)C(=O)O)ccc2OC)ccc1S(=O)(=O)C1CC1, 15-membered ring, BOP/DMAP/DIPEA, DCM/DMF, 25.0 °C, 12.0 h) turned out to be 54%.
The compound `CN1Cc2cc(ccc2S(=O)(=O)C2CC2)NC(=O)NCCc2cccc(c2)[C@@H](Nc2ccc3c(N)ncc(F)c3c2)C1=O` (single isomer, unassigned) [Example 41, trifluoroacetic acid salt] yielded a Ki at FVIIa of 0.017 µM.
The same measure, in the same setting: next, `C[C@H]1CC(=O)Nc2ccc(S(=O)(=O)C3CC3)c(c2)CN(C)C(=O)[C@H](Nc2ccc3c(N)ncc(F)c3c2)c2ccc(OCC(F)F)c1c2` (single isomer, unassigned) [Example 32, trifluoroacetic acid salt]: 0.031 µM; `CN1Cc2cc(ccc2S(=O)(=O)C2CC2)NC(=O)CCc2cc(ccc2OCc2ccccc2)[C@@H](Nc2ccc3c(N)ncc(F)c3c2)C1=O` (single isomer, unassigned) [Example 18]: 0.006 µM.
In series [1] (from CNCc1cc(NC(=O)CCc2cc(C(Nc3ccc(C#N)cc3)C(=O)O)ccc2OCC(F)F)cc(F)c1OCC(F)F, 14-membered ring, BOP), `CN1Cc2cc(cc(F)c2OCC(F)F)NC(=O)CCc2cc(ccc2OCC(F)F)C(Nc2ccc(C#N)cc2)C1=O` (centres unmarked) displayed a ring closure, isolated yield of 62%.
For `C[C@@H]1COC(=O)Nc2ccc(S(=O)(=O)C3CC3)c(c2)CN(C)C(=O)[C@H](Nc2ccc3c(N)nccc3c2)c2cccc1c2` (single isomer, unassigned) [Example 7], the Ki on FVIIa was 0.115 µM.
Still for that read-out and setting: next, `COc1ccc2cc1[C@@H](C)CN(C)C(=O)Nc1ccc(S(=O)(=O)C3CC3)c(c1)CN(C)C(=O)[C@@H]2Nc1ccc2c(N)ncc(F)c2c1` (single isomer, unassigned) [Example 31]: 0.005 µM; `CN1CCc2cc(ccc2OCC(F)F)[C@@H](Nc2ccc3c(N)ncc(F)c3c2)C(=O)N(C)Cc2cc(ccc2S(=O)(=O)C(F)F)NC1=O` (single isomer, unassigned) [Example 39, trifluoroacetic acid salt]: 0.12 µM.
Turning to `C[C@@H]1CC(=O)Nc2cccc(c2)[C@@H](CC(=O)O)NC(=O)[C@H](Nc2ccc(C(=N)N)cc2)c2ccc(OCC(F)F)c1c2` [Example 44, trifluoroacetic acid salt], on FVIIa, the Ki stood at 0.005 µM.
Take `CN1Cc2cc(ccc2S(=O)(=O)C2CC2)NC(=O)CCc2cccc(c2)[C@@H](Nc2ccc3c(N)nccc3c2)C1=O` (single isomer, unassigned) [Example 8]: the Ki at FVIIa amounted to 0.005 µM.
Take `CN1CCc2cc(ccc2OCc2ccccc2)C(Nc2ccc3c(N)ncc(F)c3c2)C(=O)N(C)Cc2cc(ccc2S(=O)(=O)C2CC2)NC1=O` (centres unmarked) [Example 19, 5-(1-Amino-4-fluoro-isoquinolin-6-ylamino)-9-benzyloxy-19-cyclopropanesulfonyl-3,13-dimethyl-3,13,15-triaza-tricyclo[14.3.1.1^6,10]henicosa-1(19),6(21),7,9,16(20),17-hexaene-4,14-dione, trifluoroacetic acid salt]: affinity at FVIIa was put at a Ki of 0.115 µM.
`COc1ccc2cc1CCOC(=O)Nc1ccc(S(=O)(=O)C3CC3)c(c1)CN(C)C(=O)[C@@H]2Nc1ccc2c(N)nccc2c1` (single isomer, unassigned) [Example 6] registered a Ki on FVIIa of 0.044 µM.
Same read-out and setting: the same measure for `CN1Cc2cc(ccc2S(=O)(=O)C2CC2)NC(=O)COc2cccc(c2)[C@@H](Nc2ccc3c(N)nccc3c2)C1=O` [Example 10, (R)-14-(1-Amino-isoquinolin-6-ylamino)-9-cyclopropanesulfonyl-12-methyl-2-oxa-5,12-diaza-tricyclo[13.3.1.1^6,10]icosa-1(18),6(20),7,9,15 (19),16-hexaene-4,13-dione trifluoroacetic acid salt+Enantiomer]: 0.714 µM.
On the same count and under the same terms, the same measure for `CN1Cc2cc(ccc2S(=O)(=O)C2CC2)NC(=O)N(CC2CCC2)CCc2cccc(c2)C(Nc2ccc3c(N)ncc(F)c3c2)C1=O` (centres unmarked) [Example 27, 5-(1-Amino-4-fluoro-isoquinolin-6-ylamino)-13-cyclobutylmethyl-19-cyclopropanesulfonyl-3-methyl-3,13,15-triaza-tricyclo[14.3.1.1^6,10]henicosa-1(19),6(21),7,9,16(20),17-hexaene-4,14-dione trifluoroacetic acid salt]: 0.148 µM.

The term Ki denotes a measure of affinity in units of concentration, obtained from inhibition or displacement.
